Measurements: article PMC2650103 (Journal of medicinal chemistry, 2008)
Where two headings read alike, the source gives them in different places.

What was measured:
[1] = test system: vaccinia virus WR in BS-C-1 cells; format: cell-based
BS-C-1 cells = details: African green monkey
[2] = test system: multiple orthopoxviruses, including two strains of variola virus; details: cited from earlier work
[3] = test system: vaccinia virus WR in BS-C-1 cells; assay: microbe, parasite or virus in culture; format: cell-based; details: Orthopoxvirus vaccinia, BSC-1, 20 h, read-out: Cell Prot EC50
[4] = cited from earlier work
[5] = Solubility in cell growth medium by light scattering; details: at the EC50 / over the range of concentrations used in the activity assays
[6] = test system: vaccinia virus WR in BS-C-1 cells; assay: microbe, parasite or virus in culture; format: cell-based; details: Orthopoxvirus vaccinia, BSC-1, 20 h, read-out: Plaque Red EC50

| Structure (SMILES) | Trapped by dsDNA [1] | Tox 120 h TC50 (BS-C-1 cells) | Growth of orthopoxviruses in cell cultures [2] | EC50 [3] [µM] | Tox 72 h TC50 (BS-C-1 cells) | Toxicity on intravenous administration [4] | Solubility in cell growth medium [5] | EC50 [6] [µM] |
| --- | --- | --- | --- | --- | --- | --- | --- | --- |
| CCNc1nc(SCc2ccc(Cl)cc2)nc2sc3c(c12)CCN(C)C3 [Compound 5] | No | 5 ∞M |  |  |  |  |  |  |
| O=C(NN1C(=O)C2C3C=CC(C4CC34)C2C1=O)c1ccc(C(F)(F)F)cc1 (stereo not drawn) [Compound 30, 4-trifluoromethyl-N-(3,3a,4,4a,5,5a,6,6a-octahydro-1,3-dioxo-4,6-ethenocycloprop[f]isoindol-2(1H)-yl)-benzamide] |  |  | inhibit the growth |  |  |  |  |  |
| Cc1csc2c(N3CCN(C(=O)NC(C)(C)C)CC3)ncnc12 [Compound 4] | No | 40 ∞M |  |  |  |  |  |  |
| Nc1ccn(C[C@@H](CO)OCP(=O)(O)O)c(=O)n1.O.O [CDV, (S)-1-(3-hydroxy-2-phosphonylmethoxypropyl)cytosine, reference compound] | No | 300 ∞M |  | 132 | >500 ∞M | nephrotoxicity |  |  |
| Cc1cc(OC(=O)c2ccco2)nc(SCc2c(Cl)cccc2Cl)n1 [Compound 8] | No | >100 ∞M |  |  | >100 ∞M |  | just slightly insoluble |  |
| Cc1cc(/N=C/c2cc(Cl)cc(Cl)c2O)no1 [Compound 6] | No | 20 ∞M |  |  | 50 ∞M |  |  |  |
| Cc1c(/N=C/c2cc(Br)cc(Br)c2O)cccc1C(=O)O [Compound 7] | No | 20 ∞M |  |  | 38 ∞M |  |  |  |
| CCOC(=O)c1c(NC(=O)/C=C/C(=O)O)sc(C)c1-c1ccccc1 [Compound 2] | No |  |  |  |  |  |  |  |
| O=C1/C(=C/C2CCCO2)CC/C1=C\C1CCCO1 (stereo not drawn) [Compound 16] | No | 50 ∞M |  |  | >100 ∞M |  | just slightly insoluble |  |
| CCn1c2ccccc2c2ccc(/C=N/n3cnnc3)cc21 [Compound 3] | No | 3 ∞M |  |  | 36 ∞M |  |  |  |
| N=C1S/C(=C/c2ccco2)C(=O)N1c1nccs1 [Compound 12] | No | 50 ∞M |  |  | >100 ∞M |  | just slightly insoluble |  |
| N=C1/C(=C/c2coc3ccccc3c2=O)C(=O)N=C2SC=NN12 [Compound 14] | No | 50 ∞M |  | 188 | >200 ∞M |  |  | 150 |
| COC(=O)c1cccc2c1-c1ccccc1/C2=N\O [Compound 1] | No | 20 ∞M |  |  |  |  |  |  |
| CCS(=O)(=O)N1CCN=C1SCc1ccc(Cl)cc1Cl [Compound 10] | No |  |  |  |  |  | just slightly insoluble |  |
| Cc1ccc2c(Sc3ccc(Cl)cc3)c(C(=O)O)[nH]c2c1 [Compound 11] | No | 120 ∞M |  | 130 | 174 ∞M |  |  |  |
| CC(=O)n1c2ccccc2c2nc(C)sc21 [Compound 15] | No | 75 ∞M |  | 236 | >200 ∞M |  |  |  |
| O=C(O)Cn1c2ccc(Cl)cc2c2nc3ccccc3nc21 [Compound 13] | No | 30 ∞M |  |  | 13 ∞M |  | just slightly insoluble |  |
| O=C(Nc1ccccc1C(=O)O)OCC1c2ccccc2-c2ccccc21 [Compound 9] | No | 20 ∞M |  | 104 | 40 ∞M |  |  |  |
